Test results from US20130156728A1, “COMPOSITION FOR NEUROLOGICAL OR AUTOIMMUNE DISEASES” (National Institutes of Health (NIH), U.S. Dept. of Health …, priority 2010, published 2013).

Columns and labels:
[1] = system: humans with type 1 diabetes; details: injections; cited from earlier work
chronic MPTP model = assay: Vaccination in chronic MPTP model (striatal DA and DAT); type: in vivo, C57BL/6 mice
[2] = system: mouse models of Alzheimer's disease; details: without adjuvant; cited from earlier work
mice = assay: Characterization of subacute MPTP model (striatal dopamine, splenocyte counts); type: in vivo, mouse
Description: To establish a subacute MPTP model, we tested administration of 10 mg/kg/day and 20 mg/kg/day MPTP for consecutive 5 days.
Data are represented as mean±SEM.

Compound: GAD65: isoform of glutamic acid decarboxylase, 65 kDa
- preservation of some insulin production [1]: 30 months

Compound: glatiramer acetate [Copaxone (without adjuvant)]
- protection of striatal dopamine (DA) and dopamine transporter (DAT) (chronic MPTP model): no protective effect
- effect in mouse models of Alzheimer's disease [2]: beneficial

Compound: CN1CC=C(c2ccccc2)CC1 [MPTP, 1-Methyl-4-Phenyl-1,2,3,6-Tetrahydro-Pyridine]
- effect on striatal dopamine levels (mice; 10 mg/kg/day MPTP for 5 days, four days after the last treatment): no obvious effect
- decrease of striatal dopamine level compared to PBS treated mice (mice; 20 mg/kg/day MPTP for 5 days, four days after the last treatment): 70%
- effect on splenocyte counts (immunotoxicity) (mice; subacute MPTP, 10 and 20 mg/kg/day for 5 days): did not affect
